US10954221B2, “GLP-1R agonists and uses thereof” (QILU REGOR THERAPEUTICS INC., priority 2019, dated 2021)

Experiments:
GLP1R [1] = target: T1, GLP1R (Homo sapiens, UniProt P43220); set-up: Emax: dose or concentration left out as unconfirmed; conditions: CHO-K1, […], read-out: β-arrestin recruitment Bmax (%)
Target sequence in this assay (P43220 24-463): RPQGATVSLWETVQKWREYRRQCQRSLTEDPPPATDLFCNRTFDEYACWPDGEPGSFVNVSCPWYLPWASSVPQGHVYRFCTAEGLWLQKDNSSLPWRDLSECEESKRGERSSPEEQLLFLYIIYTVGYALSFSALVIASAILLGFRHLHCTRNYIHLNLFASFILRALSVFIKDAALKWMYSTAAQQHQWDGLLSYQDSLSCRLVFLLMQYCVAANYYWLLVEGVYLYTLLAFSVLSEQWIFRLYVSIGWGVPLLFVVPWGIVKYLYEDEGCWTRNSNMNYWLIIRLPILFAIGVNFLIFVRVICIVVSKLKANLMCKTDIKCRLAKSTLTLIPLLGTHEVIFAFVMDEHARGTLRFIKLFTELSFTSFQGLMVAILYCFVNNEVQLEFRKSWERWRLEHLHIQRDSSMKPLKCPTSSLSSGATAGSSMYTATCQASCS
Target sequence in this assay (P32121 whole entry partner): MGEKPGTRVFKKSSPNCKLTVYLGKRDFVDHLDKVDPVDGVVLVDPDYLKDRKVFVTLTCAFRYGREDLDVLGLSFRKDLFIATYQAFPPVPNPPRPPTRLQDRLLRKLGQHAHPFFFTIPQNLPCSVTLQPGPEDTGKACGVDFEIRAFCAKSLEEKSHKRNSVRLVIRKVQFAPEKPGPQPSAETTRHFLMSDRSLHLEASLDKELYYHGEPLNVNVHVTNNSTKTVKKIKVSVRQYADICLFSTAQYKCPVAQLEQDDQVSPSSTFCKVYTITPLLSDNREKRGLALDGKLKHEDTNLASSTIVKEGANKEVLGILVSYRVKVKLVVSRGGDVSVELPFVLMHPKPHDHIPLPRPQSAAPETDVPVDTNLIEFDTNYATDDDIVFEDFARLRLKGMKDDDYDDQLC

GLP1R [2] = target: T1, GLP1R; experiment: β-Arrestin-mediated GLP1R internalization assay (PathHunter U2OS cells); type: cell-based; set-up: host or cells: PathHunter engineered U2OS cells; conditions: averaged Bmax where applicable, Percentage of Control GLP-1 (7-37), top 10 μM, 180 min
Summary of the method: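 PathHunter U2OS cells co-express untagged GLP1R, EA-tagged β-arrestin and an endosome-localized PK tag, so internalization gives β-galactosidase complementation. Agonist (top final concentration 10 μM) applied for 180 min at 37 °C, then chemiluminescence read after 60 min detection. EC50 from 4-parameter logistic fits.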
Target sequence in this assay (P43220 24-463): as the sequence (P43220 24-463) above
Target sequence in this assay (P32121 whole entry partner): as the sequence (P32121 whole entry partner) above

GLP1R [3] = target: T1, GLP1R; experiment: cAMP assay in CHO cells stably expressing hGLP-1R; type: cell-based; set-up: expressed in transfected cells; host or cells: CHO cells stably transfected; conditions: CHO cells stably expressing hGLP-1R (Table 2), read-out: CHO cAMP stable EC50
Method: GLP-1R-mediated agonist activity was determined with a cell-based functional assay utilizing an HTRF (Homogeneous Time-Resolved Fluorescence) cAMP detection kit (cAMP Dynamic 2 Assay Kit; CisBio cat #62AM4PEC) that measures cAMP levels in the cell. The method is a competitive immunoassay between native cAMP produced by the cells and exogenous cAMP labeled with the dye d2. The tracer binding is visualized by a mAb anti-cAMP labeled with Cryptate. The specific signal (i.e., energy transfer) is inversely proportional to the concentration of cAMP in either standard or experimental sample.
Following the 30 minute incubation, 5 μL of labeled d2 cAMP and 5 μL of anti-cAMP antibody (both diluted 1:20 in cell lysis buffer; as described in the manufacturer's assay protocol) were added to each well of the assay plate. […] Raw data were converted to nM cAMP by interpolation from a cAMP standard curve (as described in the manufacturer's assay protocol) and the percent effect was determined relative to a saturating concentration of the full agonist GLP-17-37 (10 nM) included on each plate. EC50 determinations were made from agonist dose-response curves analyzed with a curve fitting program using a 4-parameter logistic dose response equation. […]
Target sequence in this assay (P43220 24-463): as the sequence (P43220 24-463) above

GLP1R [4] = target: T1, GLP1R; experiment: GLP1R cAMP assay (HTRF), HEK293/GLP-1R/CRE/Luc, Clone 4
Target sequence in this assay (P43220 24-463): as above

Row | SMILES | Emax (GLP1R [1]) [%] | β-arrestin internalization Bmax (POC) (GLP1R [2]) | EC50 (GLP1R [3]) [nM] | EC50 (GLP1R [4]) [nM]
1 | N#Cc1ccc(COc2nc(-c3ccc(Cc4nc5ccc(C(=O)O)cc5n4C[C@@H]4CCO4)c(F)c3)ncc2F)c(F)c1 [Compound 266, (S)-2-(4-(4-((4-cyano-2-fluorobenzyl)oxy)-5-fluoropyrimidin-2-yl)-2-fluorobenzyl)-1-(oxetan-2-ylmethyl)-1H-benzo[d]imidazole-6-carboxylic acid] | 26.7 ± 4.76 | 19.9 ± 0.122 | < 15 | < 15
2 | O=C(O)c1ccc2nc(Cc3cc(F)c(-c4cccc(OCc5ccc(-n6ccnc6)cc5)n4)cc3F)n(C[C@@H]3CCO3)c2n1 [Compound 303, (S)-2-(4-(6-(4-(1H-imidazol-1-yl)benzyloxy)pyridin-2-yl)-2,5-difluorobenzyl)-3-(oxetan-2-ylmethyl)-3H-imidazo[4,5-b]pyridine-5-carboxylic acid] | 39.2 ± 4.75 | 28.4 | < 15 | < 15
3 | O=C(O)c1ccc2nc(Cc3cc(F)c(-c4cccc(OCc5ncc(Cl)cc5F)n4)cc3F)n(C[C@@H]3CCO3)c2n1 [Compound 276, (S)-2-(4-(6-((5-chloro-3-fluoropyridin-2-yl)methoxy)pyridin-2-yl)-2,5-difluorobenzyl)-3-(oxetan-2-ylmethyl)-3H-imidazo[4,5-b]pyridine-5-carboxylic acid] | 35.6 ± 3.9 | 26.7 | < 15 | < 15
